Values quoted from earlier work as cited in patent publication US5595896A, “Expression of heterologous genes in transgenic plants and plant cells using plant asparagine synthetase promoters” (New York University, priority 1993, dated 1997).
Read-outs that look alike come from different tables or passages of the source. Numbered stars: 1 amine (or outer) side, 2 acyl side, 3 side chain; on linkers, the order of the positions; unused ones are H or OH. Bridge positions count the residues as written; N and C are the ends. Square brackets hold non-standard residues; d marks the D form. Peptide text beside a SMILES is read from it. I, II: the chains in the order shown. Actinocin(9to1) = Cc1c2oc3c(C)ccc(C(=O)[*:1])c3nc-2c(C(=O)[*:2])c(N)c1=O; NMeV = CN[CH](C(=O)O)C(C)C; Sar = CNCC(=O)O

What was measured:
[1] = test system: PLANT AS
[2] = test system: AS; conditions: actinomycin D treatment, cotyledons of germinating cotton seedlings
[3] = test system: GS; conditions: toxin produced by P. syringae, coinfected alfalfa plants

## NC(=O)CCCC(N)C(=O)O (racemic) [DL-homoglutamine]
[1]; Glutamine analogues, 5 mM
  Inhibition (%): 42.4%

## C[C@@H](C(=O)O)[C@H](N)C(=O)O [erythro β-methyl-L-aspartate]
[1]; Aspartate analogues, 2 mM
  Inhibition (%): 51.4%

## NC(=O)CC[C@H](N)C(N)=O [L-glutamate diamide]
[1]; Glutamine analogues, 5 mM
  Inhibition (%): 9.1%

## CCOC(=O)CC[C@H](N)C(=O)O [L-glutamate-γ-ethyl ester]
[1]; Glutamine analogues, 5 mM
  Inhibition (%): 23.6%

## NC(=O)[C@@H](O)[C@H](N)C(=O)O [threo β-hydroxy-L-asparagine]
[1]; Asparagine analogues, 2 mM
  Inhibition (%): 45.2%

## N-methyl-L-asparagine
[1]; Asparagine analogues, 2 mM
  Inhibition (%): 57.6%

## NC(=O)CC[C@@H](N)C(=O)O [D-glutamine]
[1]; Glutamine analogues, 5 mM
  Inhibition (%): 14.8%

## NC(=O)SC[C@H](N)C(=O)O [S-carbamoyl-L-cysteine]
[1]; Glutamine analogues, 5 mM
  Inhibition (%): 35.6%

## CC(C(N)=O)C(N)C(=O)O (racemic) [β-methyl-DL-asparagine]
[1]; Asparagine analogues, 2 mM
  Inhibition (%): 55.1%

## N[C@@H](CC(=O)CCl)C(=O)O [5-chloro-4-oxo-L-norvaline]
[1]; Aspartate analogues, 2 mM
  Inhibition (%): 42.1%

## N[C@H](C(=O)O)[C@@H](O)C(=O)O [erythro β-hydroxy-L-aspartate]
[1]; Aspartate analogues, 2 mM
  Inhibition (%): 65.4%

## Cc1c2oc3c(C)ccc(C(=O)NC4C(=O)NC(C(C)C)C(=O)N5CCCC5C(=O)N(C)CC(=O)N(C)C(C(C)C)C(=O)OC4C)c3nc-2c(C(=O)NC2C(=O)NC(C(C)C)C(=O)N3CCCC3C(=O)N(C)CC(=O)N(C)C(C(C)C)C(=O)OC2C)c(N)c1=O (centres unmarked) [actinomycin D] (I: TVP[Sar][NMeV] / II: TVP[Sar][NMeV]; ester I:1-I:C, II:1-II:C; linker I:N-II:N via Actinocin(9to1); configuration not given here)
[2]
  induction of AS activity: abolished

## CC(=O)N[C@@H](CCC(N)=O)C(=O)O [N-acetyl-L-glutamine]
[1]; Glutamine analogues, 5 mM
  Inhibition (%): 10.2%

## NC(=O)NC[C@H](N)C(=O)O [L-albizziine]
[1]; Glutamine analogues, 5 mM
  Inhibition (%): 85.2%

## CS(=N)(=O)CC[C@H](N)C(=O)O (stereo partly drawn) [L-methionine-S-sulphoximine]
[1]
  Inhibition (%): 8.6%

## [N-]=[N+]=CC(=O)C[C@H](N)C(=O)O [5-diazo-4-oxo-L-norvaline]
[1]; Asparagine analogues, 2 mM
  Inhibition (%): 40.3%

## CN[C@@H](CC(N)=O)C(=O)O [N-α-methyl-L-asparagine]
[1]; Asparagine analogues, 2 mM
  Inhibition (%): 38.8%

## C[C@H](C(=O)O)[C@H](N)C(=O)O [threo β-methyl-L-aspartate]
[1]; Aspartate analogues, 2 mM
  Inhibition (%): 58.4%

## N[C@@H](CC(=O)CBr)C(=O)O [5-bromo-4-oxo-L-norvaline]
[1]; Aspartate analogues, 2 mM
  Inhibition (%): 49.5%

## NC(=O)[C@H](N)[C@H](N)C(=O)O (relative stereo) [meso-diaminosuccinamate]
[1]; Aspartate analogues, 2 mM
  Inhibition (%): 50.6%

## COC(=O)CC[C@H](N)C(=O)O [L-glutamate-γ-methyl ester]
[1]; Glutamine analogues, 5 mM
  Inhibition (%): 27.2%

## N[C@@H](CS(N)(=O)=O)C(=O)O [2-amino-2-carboxy-L-ethanesulphonamide]
[1]; Asparagine analogues, 2 mM
  Inhibition (%): 42.5%

## 2-hydroxyethyl-L-glutamine
[1]; Glutamine analogues, 5 mM
  Inhibition (%): 31.1%

## C=C(C[C@H](N)C(=O)O)C(N)=O [γ-methylene-L-glutamine]
[1]; Glutamine analogues, 5 mM
  Inhibition (%): 20.4%

## NC(=O)[C@H](O)[C@H](N)C(=O)O [erythro-β-hydroxy-L-asparagine]
[1]; Asparagine analogues, 2 mM
  Inhibition (%): 59.5%

## [N-]=[N+]=CC(=O)OC[C@H](N)C(=O)O [L-azaserine]
[1]; Glutamine analogues, 5 mM
  Inhibition (%): 97.5%

## NC(=O)CCC(NC(=O)OCc1ccccc1)C(=O)O (racemic) [N-CBZ-DL-glutamine]
[1]; Glutamine analogues, 5 mM
  Inhibition (%): 30.5%

## N[C@@H](CCC1(O)CNC1=O)C(=O)O (stereo partly drawn) [Tabtoxinine β-lactam]
[3]
  GS activity inhibited by toxin: severely inhibited

## N-ethyl-L-asparagine
[1]; Asparagine analogues, 2 mM
  Inhibition (%): 47.2%
